Results: the NIST ThermoML archive (doi:10.1016/j.fluid.2007.09.028)

Experiment: xn = mol fraction of the nth substance listed
Details: 101 kPa, Liquid

Clc1ccccc1 [chlorobenzene] + CCCCCO
mass density [kg/m3]
Details	288.15 K	293.15 K	298.15 K	303.15 K	308.15 K	313.15 K
x2 = 0	1111.81	1106.43	1101.04	1095.64	1090.23	1084.82
x2 = 0.0495	1096.2	1090.85	1085.48	1080.11	1074.71	1069.32
x2 = 0.1004	1080.5	1075.21	1069.9	1064.57	1059.22	1053.86
x2 = 0.1503	1065.26	1060.04	1054.8	1049.54	1044.25	1038.95
x2 = 0.2001	1050.21	1045.07	1039.9	1034.71	1029.5	1024.27
x2 = 0.2498	1035.28	1030.21	1025.13	1020.02	1014.88	1009.72
x2 = 0.2998	1020.4	1015.41	1010.4	1005.37	1000.32	995.245
x2 = 0.3497	1005.6	1000.69	995.77	990.822	985.847	980.857
x2 = 0.3992	991.011	986.186	981.346	976.483	971.589	966.679
x2 = 0.4498	976.171	971.436	966.685	961.906	957.097	952.274
x2 = 0.5	961.565	956.92	952.254	947.565	942.839	938.086
x2 = 0.5497	947.132	942.578	938.003	933.402	928.768	924.119
x2 = 0.6	932.622	928.159	923.676	919.168	914.627	910.077
x2 = 0.65	918.243	913.875	909.486	905.07	900.622	896.149
x2 = 0.6998	903.925	899.658	895.367	891.05	886.702	882.307
x2 = 0.7499	889.607	885.436	881.246	877.028	872.777	868.496
x2 = 0.8001	875.288	871.223	867.134	863.017	858.866	854.684
x2 = 0.8496	861.143	857.181	853.196	849.186	845.143	841.079
x2 = 0.9002	846.722	842.865	838.986	835.082	831.149	827.194
x2 = 0.95	832.515	828.762	824.99	821.195	817.369	813.521

Clc1ccccc1 [chlorobenzene] + CCCCO
mass density [kg/m3]
Details	288.15 K	293.15 K	298.15 K	303.15 K	308.15 K	313.15 K
x2 = 0	1111.81	1106.43	1101.04	1095.64	1090.23	1084.82
x2 = 0.0491	1098.36	1092.97	1087.57	1082.16	1076.75	1071.34
x2 = 0.1013	1084.16	1078.81	1073.45	1068.07	1062.67	–
x2 = 0.1492	1071.13	1065.83	1060.5	1055.16	1049.8	1044.42
x2 = 0.2004	1057.1	1051.85	1046.57	1041.28	1035.97	1030.63
x2 = 0.2501	1043.32	1038.12	1032.91	1027.68	1022.42	1017.14
x2 = 0.3	1029.41	1024.28	1019.13	1013.96	1008.76	1003.55
x2 = 0.3507	1015.11	1010.04	1004.96	999.858	994.721	989.562
x2 = 0.4	1001.06	996.06	991.039	985.993	980.92	975.825
x2 = 0.4502	986.537	981.622	976.686	971.72	966.72	961.715
x2 = 0.5	972.013	967.172	962.314	957.429	952.506	947.561
x2 = 0.5499	957.246	952.491	947.717	942.914	938.072	933.199
x2 = 0.5998	942.296	937.639	932.95	928.23	923.477	918.689
x2 = 0.6504	926.891	922.329	917.738	913.116	908.455	903.772
x2 = 0.7002	911.543	907.078	902.582	898.054	893.49	888.906
x2 = 0.749	896.297	891.927	887.529	883.097	878.634	874.13
x2 = 0.7995	880.209	875.948	871.658	867.339	862.977	858.585
x2 = 0.849	864.175	860.018	855.838	851.632	847.387	843.125
x2 = 0.9006	847.199	843.162	839.105	835.018	830.894	826.737
x2 = 0.9505	830.398	826.483	822.545	818.578	814.579	810.547
